The values that follow come from ChEMBL document CHEMBL5678797, “AZD7762, a novel checkpoint kinase inhibitor, drives checkpoint abrogation and potentiates DNA-targeted therapies” (Mol Cancer Ther, 2008).

Data set [1] is described as follows: Toxicity in rnu rat assessed as appearance of skin rashes at 10 mg/kg measured after 10 to 30 days. It is filed as organism-based. The settings on record: in vivo, time 10-30 day.
The nature of data set [2]: Toxicity in rnu rat assessed as appearance of hemorrhage at 10 mg/kg measured after 10 to 30 days. The settings on record: in vivo, time 10-30 day. It is filed as organism-based.
In data set [3] the test system is SW-620. Briefly: Growth inhibition of human SW620 cells expressing p53 mutant assessed as reduction in cell growth incubated for 48 hrs. It is filed as functional.
Data set [4] is described as follows: Toxicity in rnu rat assessed as appearance of skin rashes at 10 to 20 mg/kg, iv measured after 10 to 30 days post tumor implantation. It is filed as organism-based. The settings on record: in vivo, dose lower 10 mg/kg, time lower 10 day, dose upper 20 mg/kg, time upper 30 day.
For data set [5], the system named is SW-620. Briefly: Antitumor activity against human SW620 cells xenografted in athymic mouse model assessed as inhibition of tumor volume at 25 mg/kg measured after 17 to 94 days post tumor implantation by caliper method relative to control. It is filed as functional. Also noted: scale not given: the % may be the effect or the level left. The following applies: time 17-94 day.

Data set [6] has as its system HCT-116. Briefly: Induction of G2 check point abrogation in human HCT-116 cells assessed as accumulation of cells at G1 phase incubated for 30 hrs in presence of topotecan by fluorescence-activated cell sorting analysis (reference value: 68.52%). The format is functional.
The test system of data set [7] is NCI-H460. The data set can be described thus: Antitumor activity against human NCI-H460 cells expressing DNp53 mutant xenografted in NCr athymic mouse model assessed as reduction in tumor volume at 25 mg/kg measured after 10 to 45 days in presence of gemcitabine by caliper method relative to control. The format is functional. Also noted: scale not given: the % may be the effect or the level left. The following applies: time 10-45 day. (In general: Xenograft models place foreign cells or tissue in a host animal.)

Data set [8] concerns SW-620. The data set can be described thus: Antitumor activity against human SW620 cells xenografted in athymic mouse model assessed as T/C ratio at 25 mg/kg measured after 17 to 94 days post tumor implantation by caliper method relative to control. The settings on record: time 17-94 day. It is filed as functional.
For data set [9], the system named is HT-29. Briefly: Inhibition of camptothecin induced DNA damage in human HT-29 cells assessed as G2 checkpoint abrogation measured after 20 hrs presence of nocodazole by pHH3 staining based analysis.
Data set [10] is described as follows: Toxicity in athymic mouse assessed as maximum weight loss at 25 mg/kg measured after 17 to 94 days post tumor implantation in presence of 25 mg/kg of irinotecan. It is filed as organism-based. The settings on record: in vivo, time 17-94 day.
Data set [11] deals with NCI-H460. The data set can be described thus: Antitumor activity against human NCI-H460 cells expressing DNp53 mutant xenografted in rat model assessed as T/C ratio at 10 mg/kg measured after 10 to 30 days post tumor implantation in presence of gemcitabine by caliper method relative to control. The format is functional. The settings on record: time 10-30 day.
In data set [12] the test system is NCI-H460. The data set can be described thus: Antitumor activity against human NCI-H460 cells expressing DNp53 mutant xenografted in NCr athymic mouse model assessed as log cell kill 25 mg/kg measured after 10 to 45 days in presence of gemcitabine. The format is functional. The settings on record: time 10-45 day.
For data set [13], the system named is SW-620. Briefly: Antitumor activity against human SW620 cells xenografted in NCr athymic mouse model assessed as reduction in tumor volume at 25 mg/kg measured from 30 to 55 days in presence of gemcitabine by caliper method relative to control. The format is functional. Also noted: scale not given: the % may be the effect or the level left. The settings on record: time 30-55 day.

The test system of data set [14] is SW-620. Briefly: Antitumor activity against human SW620 cells xenografted in athymic mouse model assessed as inhibition of tumor volume at 25 mg/kg measured after 17 to 94 days post tumor implantation in presence of 50 mg/kg of irinotecan by caliper method relative to control. The format is functional. Also noted: scale not given: the % may be the effect or the level left. The settings on record: time 17-94 day.

For data set [15], the system named is MDA-MB-231. The data set can be described thus: Growth inhibition of human MDA-MB-231 cells expressing p53 mutant assessed as reduction in cell growth incubated for 48 hrs in presence of topotecan. The format is functional.
Data set [16] can be described thus: Toxicity in rat at low dose measured after 10 to 30 days post tumor implantation. The settings on record: in vivo, time 10-30 day.
Data set [17] can be described thus: Toxicity in rat assessed as effect on body weight loss at high dose measured after 10 to 30 days post tumor implantation. The settings on record: in vivo, time 10-30 day.
The nature of data set [18]: Toxicity in NCr athymic mouse assessed as body weight loss at 25 mg/kg measured after 10 to 45 days in presence of gemcitabine relative to control. The format is organism-based. The settings on record: in vivo, time 10-45 day.
Data set [19] relates to HCT-116. The data set can be described thus: Induction of G2 check point abrogation in human HCT-116 cells assessed as accumulation of cells at G2 phase incubated for 30 hrs in presence of topotecan by fluorescence-activated cell sorting analysis (reference value: 9.45%). It is filed as functional.
Data set [20] concerns SW-620. Briefly: Antitumor activity against human SW620 cells xenografted in athymic mouse model assessed as T/C ratio at 25 mg/kg measured after 17 to 94 days post tumor implantation in presence of 50 mg/kg of irinotecan by caliper method relative to control. It is filed as functional. The following applies: time 17-94 day.
The test system of data set [21] is SW-620. The data set can be described thus: Growth inhibition of human SW620 cells expressing p53 mutant assessed as reduction in cell growth incubated for 48 hrs in presence of gemcitabine. It is filed as functional.
For data set [22], the system named is SW-620. Briefly: Antitumor activity against human SW620 cells xenografted in athymic mouse model assessed as inhibition of tumor volume at 25 mg/kg measured after 17 to 94 days post tumor implantation in presence of 25 mg/kg of irinotecan by caliper method relative to control. The settings on record: time 17-94 day. It is filed as functional. Also noted: scale not given: the % may be the effect or the level left.

Data set [23] has as its system HT-29. Briefly: Induction of cell cycle arrest in human HT-29 cells incubated for 20 hrs by phH3 staining based analysis.
Data set [24] is described as follows: Toxicity in athymic mouse assessed as maximum weight loss at 25 mg/kg measured after 17 to 94 days post tumor implantation. It is filed as organism-based. The settings on record: in vivo, time 17-94 day.
In data set [25] the test system is NCI-H460. Briefly: Antitumor activity against human NCI-H460 cells expressing DNp53 mutant xenografted in NCr athymic mouse model assessed as T/C ratio at 25 mg/kg measured after 10 to 45 days in presence of gemcitabine by caliper method relative to control. The format is functional. The settings on record: time 10-45 day.
The subject of data set [26] is SW-620. The data set can be described thus: Antitumor activity against human SW620 cells xenografted in NCr athymic mouse model assessed as reduction in tumor volume at 12.5 mg/kg measured from 30 to 55 days in presence of gemcitabine by caliper method relative to control. It is filed as functional. Also noted: scale not given: the % may be the effect or the level left. The following applies: time 30-55 day.

The nature of data set [27]: Toxicity in athymic mouse assessed as maximum weight loss at 25 mg/kg measured after 17 to 94 days post tumor implantation in presence of 50 mg/kg of irinotecan. It is filed as organism-based. The following applies: in vivo, time 17-94 day.
A short description of data set [28]: Toxicity in NCr athymic mouse xenografted with human SW620 cells assessed as effect on body weight loss at 12.5 to 25 mg/kg measured after 30 to 55 days in presence of gemcitabine. It is filed as organism-based, SW-620. The following applies: in vivo, dose lower 12.5 mg/kg, time lower 30 day, dose upper 25 mg/kg, time upper 55 day.
Data set [29] deals with SW-620. The data set can be described thus: Antitumor activity against human SW620 cells xenografted in athymic mouse model assessed as T/C ratio at 25 mg/kg measured after 17 to 94 days post tumor implantation in presence of 25 mg/kg of irinotecan by caliper method relative to control. The format is functional. The settings on record: time 17-94 day.
The subject of data set [30] is NCI-H460. Briefly: Antitumor activity against human NCI-H460 cells expressing DNp53 mutant xenografted in rat model assessed as T/C ratio at 20 mg/kg measured after 10 to 30 days post tumor implantation in presence of gemcitabine by caliper method relative to control. The settings on record: time 10-30 day. It is filed as functional.
Data set [31] has as its system HCT-116. The data set can be described thus: Induction of G2 check point abrogation in human HCT-116 cells assessed as accumulation of cells at G1 phase incubated for 30 hrs by fluorescence-activated cell sorting analysis (reference value: 68.52%). The format is functional.
In data set [32] the test system is HCT-116. The data set can be described thus: Induction of G2 check point abrogation in human HCT-116 cells assessed as accumulation of cells at G2 phase incubated for 30 hrs by fluorescence-activated cell sorting analysis (reference value: 9.45%). The format is functional.
For data set [33], the system named is MDA-MB-231. Briefly: cells. The following applies: Homo sapiens, MDA-MB-231, 48 h.
Data set [34] can be described thus: Toxicity in athymic mouse assessed as maximum weight loss at 50 mg/kg measured after 17 to 94 days post tumor implantation. The format is organism-based. The settings on record: in vivo, time 17-94 day.
For data set [35], the system named is SW-620. The data set can be described thus: Antitumor activity against human SW620 cells xenografted in athymic mouse model assessed as T/C ratio at 50 mg/kg measured after 17 to 94 days post tumor implantation by caliper method relative to control. The following applies: time 17-94 day. The format is functional.

One may read the GI50 as the concentration giving 50% growth inhibition. Regarding `Nc1ccn([C@@H]2O[C@H](CO)[C@@H](O)C2(F)F)c(=O)n1` [GEMCITABINE], the Activity result in [1] and in data set [2] was “Toxic” each time. For the same compound, the GI50 in [3] amounted to 24.1 nM. Also, in [3] (read-out: GI100), the TGI was over 100 nM.
A word on the EC50: it is the concentration needed to bring the measured effect to its halfway point. `NC(=O)Nc1cc(-c2cccc(F)c2)sc1C(=O)N[C@H]1CCCNC1` [AZD-7762]: the Activity result in [4] was “Non-Toxic”; in data set [5] it was 38%; in [6], 52.86%; in [7] it was 76%; in data set [10] it was 0%; in [13], 77%. The Activity in data set [14] is 116%; in data set [16] it was “Non-Toxic”; in [17], “Toxic”; in [18], 7%; in data set [19], 33.02%; in data set [22] it was 116%. For the same compound, the Activity in data set [24] is given as 0%; in data set [26], 73%; in data set [27], 0%; in data set [28] it was “Non-Toxic”. The T/C is 56% in data set [8]; 48% in data set [11]; -67% in data set [20]; 26% in [25]; -66% in [29]; 32% in data set [30]. Besides, the values for the EC50 in data set [9] and in [23] were 10 nM and 620 nM, respectively. The LCK in data set [12] is recorded as 0.9. The GI50 is 150 nM in data set [15] and 1.08 nM in data set [21]. Besides, the TGI in data set [21] (read-out: GI100) came out at 1.5 nM.
As for `CC[C@@]1(O)C(=O)OCc2c1cc1n(c2=O)Cc2cc3c(CN(C)C)c(O)ccc3nc2-1` [TOPOTECAN], the values for the Activity in [31] and in data set [32] were 17.06% and 75.85%, respectively. Further, the GI50 in data set [33] was 2250 nM.
With `CCc1c2c(nc3ccc(OC(=O)N4CCC(N5CCCCC5)CC4)cc13)-c1cc3c(c(=O)n1C2)COC(=O)[C@]3(O)CC` [IRINOTECAN], the T/C was 9% in data set [8] and 1% in [35]. For the same compound, the Activity in data set [34] is listed as -1%; in [24], 0%.
